{"source": "patent US20220226291A1", "about": "“Combination Treatment of Cancer Using Sulfonamide Compound and Immune Regulator” (Taiho Pharmaceutical Co., Ltd, priority 2019, published 2022)", "key": {"[1]": {"tested_on": "MC38 mouse colon cancer cells", "assay": "Antitumor effect in MC38 colon cancer cell-transplanted mouse models (tumor volume)", "format": "in vivo", "details": "for T/C (%): Day 15; for TV on Day 15 (mm^3, mean ± SE): MC38 s.c. in C57BL/6NCrl mice, n=10", "description": "The mouse colon cancer cell strain MC38 was obtained from Dr. Yoshihiro Hayakawa (University of Toyama, Toyama, Japan). The MC38 cell strain was subjected to culture in an RPMI 1640 medium containing 10% fetal bovine serum and then to subculture in an incubator at 37° C. in the presence of 5% CO2 at a frequency of once or twice a week.\nThe MC38 cell suspension was transplanted subcutaneously at 1×10^6 cells/0.1 ml to the right chest of 6-week-old C57BL/6NCrl mice (Charles River Laboratories Japan, Inc.).\nAfter transplantation, tumors were allowed to grow to reach the tumor volume (TV) of 50 to 300 mm^3. The longer diameter and the shorter diameter of the tumor were measured using a Digimatic caliper and the tumor volume (TV) was calculated in accordance with the following formula.\nThe animals were divided into groups each consisting of 10 individuals by stratified random allocation using TV as the indicator. The day on which grouping (n=10) was performed was designated as Day 0.\nTumor volume changes (T/C) were calculated based on TV on the final day of evaluation (Day 15).\n(§1) An aqueous solution of 0.5% Hypromellose was prepared by adding an adequate amount of an injection solvent (Japanese Pharmacopoeia) to and dissolving Hypromellose at a concentration of 0.5 w/v %. Compound 1, synthesized in accordance with the method disclosed in WO 2017/209155, was grounded in an agate mortar, suspended at a given concentration in the aqueous solution of 0.5% Hypromellose, and then ultrasonically treated to obtain a homogeneous suspension. The resulting suspension was orally administered as Compound 1 once a day for continuous 14 days at 25 mg/kg/day or 50 mg/kg/day. To the control group, the aqueous solution of 0.5% Hypromellose was orally administered once a day for continuous 14 days.\n(§2) As an anti-mouse PD-1 antibody (anti-mPD-1 Ab), CD279 (PD-1) Monoclonal Antibody (RMP1-14), eBioscience (Thermo Fisher Scientific) was diluted to a given concentration with PBS immediately before administration. On the first day of administration (Day 1), the anti-mouse PD-1 antibody was administered intraperitoneally at 0.05 mg/body."}, "[2]": {"assay": "Body weight changes in MC38 colon cancer cell-transplanted mouse models", "format": "in vivo", "description": "Body weights were measured using an electronic balance for animals. Body weight changes (BWCn) on the n^th day were determined based on the body weight measured on the n^th day (BWn) in accordance with the following formula.\nas §1, §2"}, "[3]": {"details": "Non-Patent Literature 10; cited from earlier work"}, "[4]": {"biological_target": "T1, RNR (Homo sapiens, UniProt P31350)", "T1 sequence (P31350 1-389)": "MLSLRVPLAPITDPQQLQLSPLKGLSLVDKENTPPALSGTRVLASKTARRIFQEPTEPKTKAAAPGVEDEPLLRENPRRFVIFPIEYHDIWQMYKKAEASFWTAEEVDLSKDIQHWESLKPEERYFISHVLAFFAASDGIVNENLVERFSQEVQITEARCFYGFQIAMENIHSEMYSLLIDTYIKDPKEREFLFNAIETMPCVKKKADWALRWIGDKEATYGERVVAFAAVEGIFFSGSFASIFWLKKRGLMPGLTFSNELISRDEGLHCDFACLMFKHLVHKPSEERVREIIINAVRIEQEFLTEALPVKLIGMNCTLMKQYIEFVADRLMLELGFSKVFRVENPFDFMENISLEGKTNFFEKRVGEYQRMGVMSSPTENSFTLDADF", "details": "Non-Patent Literature 7; cited from earlier work"}, "[5]": {"details": "Compound 1 25 mg/kg/day p.o. days 1-14"}, "[6]": {"details": "Compound 1 50 mg/kg/day p.o. days 1-14"}}}
{"compound": "Cc1ccc(F)c([C@@H](C)[C@H](NS(=O)(=O)c2ccc(Cl)cc2C(N)=O)c2n[nH]c(=O)o2)c1C", "note": "[Compound 1, 5-Chloro-2-(N-((1S,2R)-2-(6-fluoro-2,3-dimethylphenyl)-1-(5-oxo-4,5-dihydro-1,3,4-oxadiazol-2-yl)propyl)sulfamoyl)benzamide]", "values": [{"measurement": "T/C (%)", "setting": "[1]; [5]", "result": 91.9, "unit": "%"}, {"measurement": "TV on Day 15 (mm^3, mean ± SE)", "setting": "[1]; [5]", "result": "868 ± 182", "unit": "mm^3"}, {"measurement": "T/C (%)", "setting": "[1]; [6]", "result": 29.7, "unit": "%"}, {"measurement": "TV on Day 15 (mm^3, mean ± SE)", "setting": "[1]; [6]", "result": "306 ± 79", "unit": "mm^3"}, {"measurement": "TV on Day 15 compared with the control group (Dunnett's test)", "setting": "[1]; Compound 1 at 50 mg/kg/day alone", "result": "significantly lower"}, {"measurement": "BWC on Day 15 (%, mean ± SE)", "setting": "[2]; [5]", "result": "4.0 ± 0.7", "unit": "%"}, {"measurement": "BWC on Day 15 (%, mean ± SE)", "setting": "[2]; [6]", "result": "4.9 ± 1.0", "unit": "%"}]}
{"compound": "NC(=S)NN=Cc1ncccc1N", "note": "[Compound 3-AP, 3-aminopyridine-2-carboxaldehyde thiosemicarbazone]", "values": [{"measurement": "Side effects caused in clinical cases", "setting": "[3]", "result": "hypoxia, dyspnea, methemoglobinemia"}]}
{"compound": "NC(=O)NO", "note": "[HU, hydroxyurea]", "values": [{"measurement": "RNR inhibitory activity", "setting": "[4]", "result": "very weak"}]}
